Experimental data published in patent publication US7435837B2, “Dihydrobenzofuranyl alkanamine derivatives and methods for using same” (Wyeth, priority 2003, dated 2008).
Read-outs that look alike come from different tables or passages of the source.

Biological target: T1, human 5-HT2C receptor (Homo sapiens, UniProt P28335)
T1 sequence (P28335 33-458): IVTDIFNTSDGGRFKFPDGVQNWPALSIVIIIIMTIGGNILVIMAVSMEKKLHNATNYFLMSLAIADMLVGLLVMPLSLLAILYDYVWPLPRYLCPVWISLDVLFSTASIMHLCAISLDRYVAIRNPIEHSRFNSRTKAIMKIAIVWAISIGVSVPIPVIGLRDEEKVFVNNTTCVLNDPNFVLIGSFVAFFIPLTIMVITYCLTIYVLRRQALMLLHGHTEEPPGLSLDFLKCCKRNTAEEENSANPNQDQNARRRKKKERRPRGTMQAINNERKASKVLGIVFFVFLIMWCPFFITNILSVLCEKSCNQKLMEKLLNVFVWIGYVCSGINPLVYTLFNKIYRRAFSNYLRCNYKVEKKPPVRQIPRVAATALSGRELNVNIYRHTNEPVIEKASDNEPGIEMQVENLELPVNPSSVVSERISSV
Experiment: 5-HT2C receptor-stimulated calcium mobilization (FLIPR) in CHO cells;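 note: Fluo-3-AM fluorescence read on FLIPR every 1 s, agonist added after 10 baseline reads, response taken as peak minus lowest raw fluorescence count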
Assay type: cell-based
Conditions: for Emax: CHO; for EC50: calcium mobilization, CHO cells stably expressing human 5-HT2C, read-out: 5-HT2C Function EC50

[1] = percentage of the response observed with a maximally effective concentration of 5-HT, read-out: 5-HT2C Function Emax (%)
[2] = percentage of the response observed with a maximally effective concentration of 5-HT

| SMILES | Emax [1] [%] | EC50 [nM] | Emax (read-out: 5-HT2C Function Emax (%), percentage of the response observed with a maximally effective concentration of 5-HT) [%] | 5-HT2C Function Emax (%) [2] [%] |
| --- | --- | --- | --- | --- |
| CNCC1Cc2cc(Cl)cc(-c3cc(Cl)ccc3OC)c2O1 (racemic) [Example 472, (±)-{[5-chloro-7-(5-chloro-2-methoxyphenyl)-2,3-dihydro-1-benzofuran-2-yl]methyl}methylamine] | 80 | 353 |  |  |
| CNCC1Cc2cc(Cl)cc(-c3cccc(Cl)c3Cl)c2O1 (racemic) [Example 464, (±)-{[5-chloro-7-(2,3-dichlorophenyl)-2,3-dihydro-1-benzofuran-2-yl]methyl}methylamine] | 70 | 462 |  |  |
| CNCC1Cc2cc(F)cc(-c3ccc(Cl)cc3Cl)c2O1 (single isomer, unassigned; (-)) [Example 446] |  | 460 | 70 |  |
| CNCC1Cc2cccc(-c3cccnc3)c2O1 (racemic) [Example 436, (±)-N-methyl-1-(7-pyridin-3-yl-2,3-dihydro-1-benzofuran-2-yl)methanamine] | 90 | 55 |  |  |
| CNCC1Cc2cc(Cl)cc(-c3ccc(F)cc3F)c2O1 (racemic) [Example 467, (±)-{[5-chloro-7-(2,4-difluorophenyl)-2,3-dihydro-1-benzofuran-2-yl]methyl}methylamine] | 80 | 257 |  |  |
| Clc1cccc(Cl)c1-c1cccc2c1OC(CNC1CC1)C2 (racemic) [Example 391, (±)-N-{[7-(2,6-dichlorophenyl)-2,3-dihydro-1-benzofuran-2-yl]methyl}cyclopropanamine] | 80 | 0.2 |  |  |
| CCNCC1Cc2cc(Cl)cc(-c3c(C)cccc3C)c2O1 (racemic) [Example 271, (±)-N-{[5-chloro-7-(2,6-dimethylphenyl)-2,3-dihydro-1-benzofuran-2-yl]methyl}ethanamine] | 90 | 594 |  |  |
| CNCC1Cc2cc(Cl)cc(-c3cccc(OC)c3OC)c2O1 (racemic) [Example 466, (±)-{[5-chloro-7-(2,3-dimethoxyphenyl)-2,3-dihydro-1-benzofuran-2-yl]methyl}methylamine] | 70 | 55 |  |  |
| CCCNCC1Cc2cc(Cl)cc(-c3c(C)cccc3C)c2O1 (racemic) [Example 278, (±)-N-{[5-chloro-7-(2,6-dimethylphenyl)-2,3-dihydro-1-benzofuran-2-yl]methyl}propan-1-amine] | 60 | 726 |  |  |
| Fc1cc2c(c(-c3c(Cl)cccc3Cl)c1)OC(CNC1CC1)C2 (racemic) [Example 231, (±)-N-{[7-(2,6-dichlorophenyl)-5-fluoro-2,3-dihydro-1-benzofuran-2-yl]methyl}cyclopropanamine] | 80 | 0.4 |  |  |
| CNCC1Cc2cc(Cl)cc(-c3cc(Cl)ccc3Cl)c2O1 (racemic) [Example 471, (±)-{[5-chloro-7-(2,5-dichlorophenyl)-2,3-dihydro-1-benzofuran-2-yl]methyl}methylamine] | 90 | 14 |  |  |
| COc1cccc(-c2cc(C)cc3c2OC(CN)C3)c1OC (single isomer, unassigned; (+)) [Example 296, (+)-{[7-(2,3-dimethoxyphenyl)-5-methyl-2,3-dihydro-1-benzofuran-2-yl]methyl}amine] |  | 50 |  | 80 |
| Cc1cccc(C)c1-c1cc(Cl)cc2c1OC(CNC1CC1)C2 (racemic) [Example 267, (±)-N-{[5-chloro-7-(2,6-dimethylphenyl)-2,3-dihydro-1-benzofuran-2-yl]methyl}cyclopropanamine] | 80 | 730 |  |  |
| COc1cc2c(c(-c3cc(Cl)ccc3Cl)c1)OC(CN)C2 (single isomer, unassigned; (-)) [Example 369, (−)-{[7-(2,5-dichlorophenyl)-5-methoxy-2,3-dihydro-1-benzofuran-2-yl]methyl}amine] |  | 283 |  | 90 |
| COc1cccc(-c2cc(F)cc3c2OC(CN)C3)c1OC (single isomer, unassigned; (+)) [Example 214, (+)-{[7-(2,3-dimethoxyphenyl)-5-fluoro-2,3-dihydro-1-benzofuran-2-yl]methyl}amine] |  | 79 |  | 70 |
| NCC1Cc2cc(Cl)cc(-c3cccc(F)c3F)c2O1 (racemic) [Example 246, (±)-{[5-chloro-7-(2,3-difluorophenyl)-2,3-dihydro-1-benzofuran-2-yl]methyl}amine] |  |  |  | 90 |
| COc1cccc(-c2cc(C)cc3c2OC(CN)C3)c1OC (single isomer, unassigned; (-)) [Example 295, (−)-{[7-(2,3-dimethoxyphenyl)-5-methyl-2,3-dihydro-1-benzofuran-2-yl]methyl}amine] | 90 | 8 |  |  |
| CNCC1Cc2cccc(-c3cccc(C)c3C)c2O1 (racemic) [Example 422, (±)-[(N-methyl-1-[7-(2,3-dimethylphenyl)-2,3-dihydro-1-benzofuran-2-yl]methanamine] | 80 | 443 |  |  |
| CC(C)NCC1Cc2cc(F)cc(-c3c(Cl)cccc3Cl)c2O1 (racemic) [Example 236, (±)-N-{[7-(2,6-dichlorophenyl)-5-fluoro-2,3-dihydro-1-benzofuran-2-yl]methyl}propan-2-amine] | 70 | 123 |  |  |
| Cc1cccc(-c2cccc3c2OC(CN)C3)c1C (racemic) [Example 154, (±)-1-[7-(2,3-dimethylphenyl)-2,3-dihydro-1-benzofuran-2-yl]methanamine] | 90 | 65 |  |  |
| CNCC1Cc2cc(F)cc(-c3c(C)cccc3C)c2O1 (racemic) [Example 453, (±)-{[7-(2,6-dimethylphenyl)-5-fluoro-2,3-dihydro-1-benzofuran-2-yl]methyl}methylamine] | 80 | 24 |  |  |
| CNCC1Cc2cc(C)cc(-c3cccc(OC)c3OC)c2O1 (single isomer, unassigned; (-)) [Example 567, (−)-{[7-(2,3-dimethoxyphenyl)-5-methyl-2,3-dihydro-1-benzofuran-2-yl]methyl}methylamine] |  | 9 |  | 60 |
| Cc1cccc(C)c1-c1cc(Cl)cc2c1OC(CNC1CCC1)C2 (racemic) [Example 269, (±)-N-{[5-chloro-7-(2,6-dimethylphenyl)-2,3-dihydro-1-benzofuran-2-yl]methyl}cyclobutanamine] | 20 | 5120 |  |  |
| Fc1cc2c(c(-c3c(Cl)cccc3Cl)c1)OC(CNCC1CC1)C2 (racemic) [Example 232, (±)-1-cyclopropyl-N-{[7-(2,6-dichlorophenyl)-5-fluoro-2,3-dihydro-1-benzofuran-2-yl]methyl}methanamine] | 50 | 114 |  |  |
| CNCC1Cc2cc(Cl)cc(-c3cc(Cl)ccc3Cl)c2O1 (single isomer, unassigned; (-)) [Example 563, (−)-{[5-chloro-7-(2,5-dichlorophenyl)-2,3-dihydro-1-benzofuran-2-yl]methyl}methylamine] |  | 135 |  | 70 |
| Fc1cc2c(c(-c3c(Cl)cccc3Cl)c1)OC(CN1CCCCC1)C2 (racemic) [Example 238, (±)-1-{[7-(2,6-dichlorophenyl)-5-fluoro-2,3-dihydro-1-benzofuran-2-yl]methyl}piperidine] | 40 | 529 |  |  |
